PubChem BioAssay AID2060612 (Molecular Pharmacology Branch, DTP, NCI, 2025)

Tested on: 565232-114-T-J1-PDC complex spheroid viability
Experiment: Anticancer human tumor 565232-114-T-J1-PDC patient-derived bladder carcinoma cell line growth inhibition [CLK]
Conditions: for IC50: curve of first compound; for viability, T/C: stronger effect = lower value
Procedure, shortened: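 Patient-derived tumor cells grown as complex spheroids with HUVEC endothelial cells and mesenchymal stem cells, treated with drug combinations. Concentrations descend in half-log steps from near clinical Cmax, or from 10 microM if Cmax unknown.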

[1] = second compound 0.0316 µM, first compound 0.00949 µM
[2] = second compound 0.0316 µM, first compound 0.03 µM
[3] = second compound 0.0316 µM, first compound 0.0949 µM
[4] = second compound 0.0316 µM, first compound 0.3 µM
[5] = second compound 0.1 µM, first compound 0.00949 µM
[6] = second compound 0.1 µM, first compound 0.03 µM
[7] = second compound 0.1 µM, first compound 0.0949 µM
[8] = second compound 0.1 µM, first compound 0.3 µM
[9] = second compound 0.316 µM, first compound 0.00949 µM
[10] = second compound 0.316 µM, first compound 0.03 µM
[11] = second compound 0.316 µM, first compound 0.0949 µM
[12] = second compound 0.316 µM, first compound 0.3 µM
[13] = second compound 1 µM, first compound 0.00949 µM
[14] = second compound 1 µM, first compound 0.03 µM
[15] = second compound 1 µM, first compound 0.0949 µM
[16] = second compound 1 µM, first compound 0.3 µM
[17] = second compound 3.16 µM, first compound 0.00949 µM
[18] = second compound 3.16 µM, first compound 0.03 µM
[19] = second compound 3.16 µM, first compound 0.0949 µM
[20] = second compound 3.16 µM, first compound 0.3 µM
[21] = second compound 10 µM, first compound 0.00949 µM
[22] = second compound 10 µM, first compound 0.03 µM
[23] = second compound 10 µM, first compound 0.0949 µM
[24] = second compound 10 µM, first compound 0.3 µM
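Also: spheroids exposed to compounds for 7 days before readout.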
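For viability, T/C in this document: 100% = DMSO vehicle wells with luminescence normalized to vehicle control.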

`C=CC(=O)Nc1cc(Nc2nccc(-c3cn(C)c4ccccc34)n2)c(OC)cc1N(C)CCN(C)C` + CNC(=O)c1ccc(Nc2nc(OC3CCCC3)c3c(-c4ccc5nc(C)oc5c4)c[nH]c3n2)c(OC)c1 showed an IC50 (second compound 0.0316 µM) of over 300 nM, an IC50 (second compound 0.1 µM) of 105 nM and an IC50 (second compound 0.316 µM) of under 0.949 nM. It also gave an IC50 (second compound 1 µM) of under 0.949 nM, an IC50 (second compound 3.16 µM) of under 0.949 nM and an IC50 (second compound 10 µM) of under 0.949 nM. It also gave a viability, T/C (second compound 0.0316 µM, first compound 0.000949 µM) of 84.3%, a viability, T/C (second compound 0.0316 µM, first compound 0.003 µM) of 92.5% and a viability, T/C [1] of 75.5%. For the same molecule, the viability, T/C [2] was 86.7%, the viability, T/C [3] was 87.6% and the viability, T/C [4] was 86.1%. For the same molecule, the viability, T/C (second compound 0.1 µM, first compound 0.000949 µM) was 49.8%, the viability, T/C (second compound 0.1 µM, first compound 0.003 µM) was 53.3% and the viability, T/C [5] was 51.1%. The viability, T/C [6] was 49.2%, the viability, T/C [7] was 51.6% and the viability, T/C [8] was 40.5%. It also gave a viability, T/C (second compound 0.316 µM, first compound 0.000949 µM) of 28.5%, a viability, T/C (second compound 0.316 µM, first compound 0.003 µM) of 31.7% and a viability, T/C [9] of 28.5%. The viability, T/C [10] was 31.1%, the viability, T/C [11] was 35.7% and the viability, T/C [12] was 26.2%. For the same molecule, the viability, T/C (second compound 1 µM, first compound 0.000949 µM) was 22.4%, the viability, T/C (second compound 1 µM, first compound 0.003 µM) was 27.3% and the viability, T/C [13] was 21.9%. For the same molecule, the viability, T/C [14] was 26.4%, the viability, T/C [15] was 18.1% and the viability, T/C [16] was 22%. For the same molecule, the viability, T/C (second compound 3.16 µM, first compound 0.000949 µM) was 18.5%, the viability, T/C (second compound 3.16 µM, first compound 0.003 µM) was 20.7% and the viability, T/C [17] was 17.6%. It also gave a viability, T/C [18] of 21.4%, a viability, T/C [19] of 15.2% and a viability, T/C [20] of 14.3%. It also gave a viability, T/C (second compound 10 µM, first compound 0.000949 µM) of 19.9%, a viability, T/C (second compound 10 µM, first compound 0.003 µM) of 18.8% and a viability, T/C [21] of 16.1%. For the same molecule, the viability, T/C [22] was 18.2%, the viability, T/C [23] was 14% and the viability, T/C [24] was 11.7%.

`NC(=O)C(=Cn1cnc(-c2cc(C(F)(F)F)cc(C(F)(F)F)c2)n1)c1cncnc1` + CNC(=O)c1ccc(Nc2nc(OC3CCCC3)c3c(-c4ccc5nc(C)oc5c4)c[nH]c3n2)c(OC)c1 gave an IC50 (second compound 0.0316 µM) of 240 nM, an IC50 (second compound 0.1 µM) of under 9.49 nM and an IC50 (second compound 0.316 µM) of under 9.49 nM. The IC50 (second compound 1 µM) was under 9.49 nM, the IC50 (second compound 3.16 µM) was under 9.49 nM and the IC50 (second compound 10 µM) was under 9.49 nM. For the same molecule, the viability, T/C [1] was 105%, the viability, T/C [2] was 103% and the viability, T/C [3] was 124%. For the same molecule, the viability, T/C [4] was 35.5%, the viability, T/C (second compound 0.0316 µM, first compound 0.949 µM) was 1.65% and the viability, T/C (second compound 0.0316 µM, first compound 3 µM) was 0.39%. For the same molecule, the viability, T/C [5] was 44.5%, the viability, T/C [6] was 42.2% and the viability, T/C [7] was 28.9%. The viability, T/C [8] was 10.7%, the viability, T/C (second compound 0.1 µM, first compound 0.949 µM) was 1% and the viability, T/C (second compound 0.1 µM, first compound 3 µM) was 0.65%. For the same molecule, the viability, T/C [9] was 29.7%, the viability, T/C [10] was 29.7% and the viability, T/C [11] was 27.1%. The viability, T/C [12] was 8.97%, the viability, T/C (second compound 0.316 µM, first compound 0.949 µM) was 1.36% and the viability, T/C (second compound 0.316 µM, first compound 3 µM) was 1.61%. It also gave a viability, T/C [13] of 21.2%, a viability, T/C [14] of 24% and a viability, T/C [15] of 19.4%. The viability, T/C [16] was 5.67%, the viability, T/C (second compound 1 µM, first compound 0.949 µM) was 0.48% and the viability, T/C (second compound 1 µM, first compound 3 µM) was 1.21%. It also gave a viability, T/C [17] of 16.4%, a viability, T/C [18] of 17.2% and a viability, T/C [19] of 13.8%. It also gave a viability, T/C [20] of 4.75%, a viability, T/C (second compound 3.16 µM, first compound 0.949 µM) of 1.02% and a viability, T/C (second compound 3.16 µM, first compound 3 µM) of 0.26%. It also gave a viability, T/C [21] of 16.3%, a viability, T/C [22] of 16.8% and a viability, T/C [23] of 11.7%. The viability, T/C [24] was 4.97%, the viability, T/C (second compound 10 µM, first compound 0.949 µM) was 0.49% and the viability, T/C (second compound 10 µM, first compound 3 µM) was 0.34%.

Molecule `Nc1ccccc1NC(=O)c1ccc(CNC(=O)OCc2cccnc2)cc1` + CNC(=O)c1ccc(Nc2nc(OC3CCCC3)c3c(-c4ccc5nc(C)oc5c4)c[nH]c3n2)c(OC)c1 has an IC50 (second compound 0.0316 µM) of 2980 nM, an IC50 (second compound 0.1 µM) of 44.4 nM and an IC50 (second compound 0.316 µM) of under 31.6 nM. For the same molecule, the IC50 (second compound 1 µM) was under 31.6 nM, the IC50 (second compound 3.16 µM) was under 31.6 nM and the IC50 (second compound 10 µM) was under 31.6 nM. For the same molecule, the viability, T/C (second compound 0.0316 µM, first compound 0.0316 µM) was 82%, the viability, T/C (second compound 0.0316 µM, first compound 0.1 µM) was 109% and the viability, T/C (second compound 0.0316 µM, first compound 0.316 µM) was 109%. The viability, T/C (second compound 0.0316 µM, first compound 1 µM) was 87.8%, the viability, T/C (second compound 0.0316 µM, first compound 3.16 µM) was 48.3% and the viability, T/C (second compound 0.0316 µM, first compound 10 µM) was 0.6%. The viability, T/C (second compound 0.1 µM, first compound 0.0316 µM) was 51%, the viability, T/C (second compound 0.1 µM, first compound 0.1 µM) was 47.9% and the viability, T/C (second compound 0.1 µM, first compound 0.316 µM) was 35%. The viability, T/C (second compound 0.1 µM, first compound 1 µM) was 24.9%, the viability, T/C (second compound 0.1 µM, first compound 3.16 µM) was 15.6% and the viability, T/C (second compound 0.1 µM, first compound 10 µM) was 0.18%. For the same molecule, the viability, T/C (second compound 0.316 µM, first compound 0.0316 µM) was 33.1%, the viability, T/C (second compound 0.316 µM, first compound 0.1 µM) was 27.7% and the viability, T/C (second compound 0.316 µM, first compound 0.316 µM) was 16.4%. The viability, T/C (second compound 0.316 µM, first compound 1 µM) was 11.1%, the viability, T/C (second compound 0.316 µM, first compound 3.16 µM) was 5.55% and the viability, T/C (second compound 0.316 µM, first compound 10 µM) was 0.32%. It also gave a viability, T/C (second compound 1 µM, first compound 0.0316 µM) of 23.7%, a viability, T/C (second compound 1 µM, first compound 0.1 µM) of 18.4% and a viability, T/C (second compound 1 µM, first compound 0.316 µM) of 14.7%. It also gave a viability, T/C (second compound 1 µM, first compound 1 µM) of 8.67%, a viability, T/C (second compound 1 µM, first compound 3.16 µM) of 8.05% and a viability, T/C (second compound 1 µM, first compound 10 µM) of 0.14%. The viability, T/C (second compound 3.16 µM, first compound 0.0316 µM) was 17.5%, the viability, T/C (second compound 3.16 µM, first compound 0.1 µM) was 16.4% and the viability, T/C (second compound 3.16 µM, first compound 0.316 µM) was 10.7%. It also gave a viability, T/C (second compound 3.16 µM, first compound 1 µM) of 6.76%, a viability, T/C (second compound 3.16 µM, first compound 3.16 µM) of 6.55% and a viability, T/C (second compound 3.16 µM, first compound 10 µM) of 0.19%. It also gave a viability, T/C (second compound 10 µM, first compound 0.0316 µM) of 17.6%, a viability, T/C (second compound 10 µM, first compound 0.1 µM) of 14.9% and a viability, T/C (second compound 10 µM, first compound 0.316 µM) of 8.73%. It also gave a viability, T/C (second compound 10 µM, first compound 1 µM) of 6.93%, a viability, T/C (second compound 10 µM, first compound 3.16 µM) of 6.45% and a viability, T/C (second compound 10 µM, first compound 10 µM) of 0.27%.
